Read-outs that look alike come from different tables or passages of the source.
Key:
[1] = target: T1, MARK4 (Homo sapiens, UniProt Q96L34); test: KiNativ kinase panel; type: cell-based; details: 1 μM, MCF-7 Cells
T1 construct: purchased ActivX Biosciences (KiNativ)
T1 sequence (Q96L34 1-752): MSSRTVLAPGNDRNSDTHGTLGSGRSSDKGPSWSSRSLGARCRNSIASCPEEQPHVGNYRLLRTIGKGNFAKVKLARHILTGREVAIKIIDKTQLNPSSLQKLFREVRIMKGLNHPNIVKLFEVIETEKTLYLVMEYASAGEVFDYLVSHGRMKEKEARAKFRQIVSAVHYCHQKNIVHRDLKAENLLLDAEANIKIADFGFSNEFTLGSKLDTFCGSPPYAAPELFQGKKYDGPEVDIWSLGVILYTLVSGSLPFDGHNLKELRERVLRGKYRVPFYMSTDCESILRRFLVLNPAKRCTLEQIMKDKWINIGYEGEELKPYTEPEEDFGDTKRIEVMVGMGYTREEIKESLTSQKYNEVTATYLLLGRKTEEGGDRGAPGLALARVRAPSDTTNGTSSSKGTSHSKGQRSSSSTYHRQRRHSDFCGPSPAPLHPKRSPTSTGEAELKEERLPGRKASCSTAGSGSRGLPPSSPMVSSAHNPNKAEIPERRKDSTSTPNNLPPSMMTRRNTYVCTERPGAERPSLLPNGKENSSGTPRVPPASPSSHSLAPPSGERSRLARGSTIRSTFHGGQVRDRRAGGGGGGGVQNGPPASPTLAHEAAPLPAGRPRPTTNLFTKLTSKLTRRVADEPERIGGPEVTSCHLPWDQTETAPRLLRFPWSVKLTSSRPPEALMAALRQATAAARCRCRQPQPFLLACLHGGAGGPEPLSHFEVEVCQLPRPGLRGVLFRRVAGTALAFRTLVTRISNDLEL

[2] = target: T2, CDK2 (Homo sapiens, UniProt P24941); test: KiNativ kinase panel; type: cell-based; details: 1 μM, MCF-7 Cells
T2 construct: purchased ActivX Biosciences (KiNativ)

[3] = tested on: JNK1, JNK2, JNK3; test: KiNativ kinase panel; type: cell-based, human; details: 1 μM, MCF-7 Cells, Lys2
[4] = tested on: FYN, SRC, YES; test: KiNativ kinase panel; type: cell-based, human; details: 1 μM, MCF-7 Cells, Activation Loop
[5] = tested on: CaMK2a, CaMK2b, CaMK2d, CaMK2g; test: KiNativ kinase panel; type: cell-based; details: 1 μM, MCF-7 Cells, Lys2
[6] = tested on: NEK6, NEK7; test: KiNativ kinase panel; type: cell-based, human; details: 1 μM, MCF-7 Cells, Lys2
[7] = target: T3, ITPK1 (Homo sapiens, UniProt Q13572); test: KiNativ kinase panel; type: cell-based; details: 1 μM, MCF-7 Cells, ATP
T3 construct: endogenous in cells; host or cells: MCF7
T3 sequence (Q13572 1-414): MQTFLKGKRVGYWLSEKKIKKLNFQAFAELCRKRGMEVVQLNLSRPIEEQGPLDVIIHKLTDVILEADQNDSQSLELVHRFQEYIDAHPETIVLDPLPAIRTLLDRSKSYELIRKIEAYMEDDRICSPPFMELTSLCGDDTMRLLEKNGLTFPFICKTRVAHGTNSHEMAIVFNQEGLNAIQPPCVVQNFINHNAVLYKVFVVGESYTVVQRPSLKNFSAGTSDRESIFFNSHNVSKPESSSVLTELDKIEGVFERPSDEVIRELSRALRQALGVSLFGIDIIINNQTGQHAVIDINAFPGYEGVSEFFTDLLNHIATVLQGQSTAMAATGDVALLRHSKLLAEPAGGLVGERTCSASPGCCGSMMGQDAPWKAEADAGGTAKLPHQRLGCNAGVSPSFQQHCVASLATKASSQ

[8] = target: T4, DNA-PK (Homo sapiens, UniProt P78527); test: Nanosyn Lipid Kinase screen; type: biochemical
T4 construct: purchased Promega V4106
Method: complex formation) controls.
Nanosyn Lipid Kinase screen. Biochemical inhibition of lipid and related protein kinases was determined by Nanosyn (Santa Clara, CA). […]
ADP formation using ADP-Glo (Promega). Kinase reactions were assembled in 384 well plates in a total volume of 20 µL as follows. […]
Compounds were serially pre-diluted in DMSO and added to the protein samples by acoustic dispensing (200 nL, Labcyte Echo). Concentration of DMSO was equalized to 1% in all samples. All test compounds were tested at 12 concentrations, 3x dilution intervals. The control samples (0%-inhibition in the absence of inhibitor, DMSO only) and 100%-inhibition (in the absence of enzyme) were assembled in replicates of four and were used to calculate %-inhibition in the presence of compounds. […]

[9] = tested on: CK1g1, CK1g2, CK1g3; test: KiNativ kinase panel; type: cell-based, human; details: 1 μM, MCF-7 Cells, ATP Loop
[10] = target: T5, MLK3 (Homo sapiens, UniProt Q16584); test: KiNativ kinase panel; type: cell-based; details: 1 μM; MCF-7 Cells; Lys2; DLKSNNILLLQPIESDDMEHK
T5 construct: purchased ActivX Biosciences (KiNativ)
T5 sequence (Q16584 whole entry): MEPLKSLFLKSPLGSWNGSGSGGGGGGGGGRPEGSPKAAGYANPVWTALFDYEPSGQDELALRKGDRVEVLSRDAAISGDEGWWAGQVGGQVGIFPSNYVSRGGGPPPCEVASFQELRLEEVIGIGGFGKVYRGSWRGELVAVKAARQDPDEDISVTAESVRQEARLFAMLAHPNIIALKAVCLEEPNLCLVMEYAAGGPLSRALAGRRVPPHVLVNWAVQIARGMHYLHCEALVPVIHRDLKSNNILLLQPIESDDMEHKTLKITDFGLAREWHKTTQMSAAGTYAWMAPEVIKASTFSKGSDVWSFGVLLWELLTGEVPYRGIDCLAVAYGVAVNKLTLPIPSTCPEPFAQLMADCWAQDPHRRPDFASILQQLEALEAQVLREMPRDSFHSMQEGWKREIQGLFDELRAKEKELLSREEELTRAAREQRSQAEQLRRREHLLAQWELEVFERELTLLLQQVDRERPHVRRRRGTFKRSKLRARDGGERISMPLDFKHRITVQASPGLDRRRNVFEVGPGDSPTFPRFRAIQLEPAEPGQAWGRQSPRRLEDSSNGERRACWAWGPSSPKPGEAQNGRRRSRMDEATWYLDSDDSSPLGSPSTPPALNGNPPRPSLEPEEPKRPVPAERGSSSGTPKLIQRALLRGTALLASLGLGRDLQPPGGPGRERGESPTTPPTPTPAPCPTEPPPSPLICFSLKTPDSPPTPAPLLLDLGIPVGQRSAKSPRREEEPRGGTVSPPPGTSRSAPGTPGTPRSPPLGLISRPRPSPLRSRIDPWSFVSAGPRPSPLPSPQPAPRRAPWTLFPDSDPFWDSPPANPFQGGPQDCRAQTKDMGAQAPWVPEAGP

[11] = target: T6, PKR (Homo sapiens, UniProt P19525); test: KiNativ kinase panel; type: cell-based; details: 1 μM, MCF-7 Cells
T6 construct: MCF7 cells were exposed to; endogenous in cells; host or cells: MCF7
T6 sequence (P19525 whole entry): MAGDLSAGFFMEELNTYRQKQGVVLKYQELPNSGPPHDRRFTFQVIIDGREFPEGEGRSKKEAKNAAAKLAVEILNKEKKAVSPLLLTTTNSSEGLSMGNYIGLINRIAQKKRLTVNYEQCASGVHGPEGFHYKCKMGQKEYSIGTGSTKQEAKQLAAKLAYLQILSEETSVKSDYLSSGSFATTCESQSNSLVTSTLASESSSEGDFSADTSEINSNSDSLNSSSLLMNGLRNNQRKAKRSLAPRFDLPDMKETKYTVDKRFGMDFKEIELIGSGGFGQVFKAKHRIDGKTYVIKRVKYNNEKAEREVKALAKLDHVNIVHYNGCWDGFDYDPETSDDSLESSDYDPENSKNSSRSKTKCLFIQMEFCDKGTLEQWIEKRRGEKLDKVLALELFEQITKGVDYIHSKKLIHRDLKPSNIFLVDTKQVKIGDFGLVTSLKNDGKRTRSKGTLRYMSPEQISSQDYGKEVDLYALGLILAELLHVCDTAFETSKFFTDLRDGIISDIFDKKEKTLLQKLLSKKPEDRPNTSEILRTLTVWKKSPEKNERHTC

[12] = tested on: AurA, AurB, AurC; test: KiNativ kinase panel; type: cell-based, human; details: 1 μM; MCF-7 Cells; ATP Loop; GKFGNVYLAR
[13] = ESIFFNSHNVSKPESSSVLTELDKIEGVFERPSDEVIR
[14] = Activation Loop, IGDFGLVTSLKNDGKR

Structure (SMILES)	KiNativ Kinase Panel Data ([1]; Lys2, DLKAENLLLDAEANIK)	KiNativ Kinase Panel Data ([2]; Lys1, LTGEVVALKK)	KiNativ Kinase Panel Data ([2]; Lys2, DLKPQNLLINTEGAIK)	KiNativ Kinase Panel Data [7, 13]	KiNativ Kinase Panel Data [10]	KiNativ Kinase Panel Data [11, 14]	KiNativ Kinase Panel Data ([11]; Lys1, TYVIKR)	KiNativ Kinase Panel Data ([11]; Lys2, DLKPSNIFLVDTK)	KiNativ Kinase Panel Data [12]	also measured
CO[C@H]1C[C@@H]2CC[C@@H](C)[C@@](O)(O2)C(=O)C(=O)N2CCCC[C@H]2C(=O)O[C@H]([C@H](C)C[C@@H]2CC[C@@H](OC(=O)NCCOCCOCCOCCOCCOCCOCCOCCOCCC(=O)NCCS(=O)(=O)c3ccc(C(=O)N4CCOc5ccc(-c6ccc(N)nc6)cc5C4)c(C)c3F)[C@H](OC)C2)C[C@@H](O)[C@H](C)/C=C(\C)[C@@H](O)[C@@H](OC)C(=O)[C@H](C)C[C@H](C)/C=C/C=C/C=C/1C [compound 40]	22.2	-29.1	-40.9	-9.6	-12.3	17.4	9.6	-32.5	-3.6	KiNativ Kinase Panel Data ([1]; Lys1, EVAIKIIDKTQLNPSSLQK): 24.2; KiNativ Kinase Panel Data ([3]; DLKPSNIVVK): -9.5; KiNativ Kinase Panel Data ([4]; QGAKFPIKWTAPEAALYGR): -28.5; KiNativ Kinase Panel Data ([5]; DLKPENLLLASK): -30.6; KiNativ Kinase Panel Data ([6]; DIKPANVFITATGVVK): -12.6; KiNativ Kinase Panel Data ([7]; NFSAGTSDRESIFFNSHNVSKPESSSVLTELDKIEGVFERPSDEVIR): -12.4; IC50 ([8]; Nanosyn, with FKBP12): > 1000 nM; KiNativ Kinase Panel Data ([9]; KIGCGNFGELR): -7.8
CO[C@H]1C[C@@H]2CC[C@@H](C)[C@@](O)(O2)C(=O)C(=O)N2CCCC[C@H]2C(=O)O[C@H]([C@H](C)C[C@@H]2CC[C@@H](OC(=O)NCCOCCOCCOCCOCCOCCOCCOCCOCCC(=O)N3CCc4cc(Cn5nc(-c6ccc7oc(N)nc7c6)c6c(N)ncnc65)ccc4C3)[C@H](OC)C2)C[C@@H](O)[C@H](C)/C=C(\C)[C@@H](O)[C@@H](OC)C(=O)[C@H](C)C[C@H](C)/C=C/C=C/C=C/1C [compound 38]	20.6	1.0	13.1	6.5	2.0	12.1	15.2	11.0	34.8	KiNativ Kinase Panel Data ([1]; Lys1, […]): 7.0; KiNativ Kinase Panel Data ([3]; […]): 13.8; KiNativ Kinase Panel Data ([4]; […]): -6.3; KiNativ Kinase Panel Data ([5]; […]): 26.2; KiNativ Kinase Panel Data ([6]; […]): 11.1; KiNativ Kinase Panel Data ([7]; […]): 22.4; IC50 [8]: > 1000 nM; KiNativ Kinase Panel Data ([9]; […]): 8.9

Reference: article PMC9841523 (Journal of Medicinal Chemistry, 2022)
